Read-outs that look alike come from different tables or passages of the source. A value given as a limit tells only on which side of the number the result lay.

In assay [1] the target is T1, human Dopamine D2L receptor (Homo sapiens, UniProt P14416).
T1 construct: expressed in transfected cells; host or cells: CHO cells
Briefly: In vitro binding affinity for human D2L receptor ([3H]Spiperone). As to conditions: human D2L receptor-transfected CHO cell membranes, [3H]Spiperone; read-out: h-D2L (converted). Here is the method: Frozen membranes of human Dopamine D2L receptor-transfected CHO cells were thawed, briefly homogenised using an Ultra-Turrax T25 homogeniser and diluted in Tris-HCl assay buffer containing NaCl, CaCl2, MgCl2, KCl (50, 120, 2, 1, and 5 mM respectively, adjusted to pH 7.7 with HCl) to an appropriate protein concentration optimised for specific and non-specific binding. Radioligand [^3H]Spiperone (NEN, specific activity ˜70 Ci/mmol) was diluted in assay buffer at a concentration of 2 nmol/L. Prepared radioligand (50 μl), along with 50 μl of either the 10% DMSO control, Butaclamol (10^−6 mol/l final concentration), or compound of interest, was then incubated (30 min, 37° C.) with 400 μl of the prepared membrane solution. Membrane-bound activity was filtered through a Packard Filtermate harvester onto GF/B Unifilterplates and washed with ice-cold Tris-HCl buffer (50 mM; pH 7.7; 6×0.5 ml). Filters were allowed to dry before adding scintillation fluid and counting in a Topcount scintillation counter. Percentage specific bound and competition binding curves were calculated using S-Plus software (Insightful).

In assay [2] the target is T2, human cloned 5-HT2C receptor (Homo sapiens, UniProt P28335).
T2 construct: expressed in transfected cells; host or cells: CHO cells
T2 sequence (P28335 33-458): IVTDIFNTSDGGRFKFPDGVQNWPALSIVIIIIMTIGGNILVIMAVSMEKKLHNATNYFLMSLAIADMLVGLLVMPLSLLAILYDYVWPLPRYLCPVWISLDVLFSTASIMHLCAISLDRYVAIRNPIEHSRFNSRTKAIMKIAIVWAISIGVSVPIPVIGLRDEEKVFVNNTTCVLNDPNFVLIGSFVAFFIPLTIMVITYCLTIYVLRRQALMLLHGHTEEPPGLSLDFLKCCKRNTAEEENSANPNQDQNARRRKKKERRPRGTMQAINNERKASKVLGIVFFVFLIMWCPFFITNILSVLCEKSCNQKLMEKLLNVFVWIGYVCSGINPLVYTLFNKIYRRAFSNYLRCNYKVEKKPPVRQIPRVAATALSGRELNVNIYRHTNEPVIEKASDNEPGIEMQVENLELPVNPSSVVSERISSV
Briefly: In vitro binding affinity for 5-HT2C receptor (radioligand binding). To be noted: human cloned 5-HT2C receptor, radioligand binding. Here is the method:
(§1) During the incubation, the radioligands bind to the receptor. When equilibrium of binding is reached, the receptor bound radioactivity is separated from the non-bound radioactivity, and the receptor bound activity is counted. The interaction of the test compounds with the receptors is assessed in competition binding experiments. Various concentrations of the test compound are added to the incubation mixture containing the tissue preparation and the radioligand. Binding of the radioligand will be inhibited by the test compound in proportion to its binding affinity and its concentration.

In assay [3] the target is T3, human cloned 5-HT2A receptor (Homo sapiens, UniProt P28223).
T3 construct: expressed in transfected cells; host or cells: L929 cells
T3 sequence (P28223 whole entry): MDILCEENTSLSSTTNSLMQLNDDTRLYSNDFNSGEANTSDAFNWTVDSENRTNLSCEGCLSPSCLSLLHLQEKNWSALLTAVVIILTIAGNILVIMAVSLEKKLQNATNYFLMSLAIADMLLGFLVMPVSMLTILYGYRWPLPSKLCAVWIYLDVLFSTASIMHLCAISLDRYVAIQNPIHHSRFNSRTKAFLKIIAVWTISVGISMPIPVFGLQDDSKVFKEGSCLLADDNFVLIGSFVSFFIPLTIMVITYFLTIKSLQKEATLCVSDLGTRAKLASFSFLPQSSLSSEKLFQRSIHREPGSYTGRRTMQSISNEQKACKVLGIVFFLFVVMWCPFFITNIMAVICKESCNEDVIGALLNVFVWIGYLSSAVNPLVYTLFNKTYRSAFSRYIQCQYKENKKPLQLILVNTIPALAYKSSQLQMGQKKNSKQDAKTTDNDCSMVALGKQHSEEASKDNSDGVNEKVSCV
The experiment in a line: In vitro binding affinity for 5-HT2A receptor (radioligand binding). As to conditions: human cloned 5-HT2A receptor, radioligand binding. Here is the method:
as §1, with “concentration. The affinities of the compounds for the 5-HT2 receptors were measured by means of radioligand binding studies conducted with: (a) human cloned 5-HT2A receptor, expressed in L929 cells using [^125I]R91150 as radioligand and (b) human cloned 5-HT2C receptor, expressed in CHO cells using [^3H]mesulergine as radioligand.” for “concentration.”

T1 sequence (P14416 whole entry): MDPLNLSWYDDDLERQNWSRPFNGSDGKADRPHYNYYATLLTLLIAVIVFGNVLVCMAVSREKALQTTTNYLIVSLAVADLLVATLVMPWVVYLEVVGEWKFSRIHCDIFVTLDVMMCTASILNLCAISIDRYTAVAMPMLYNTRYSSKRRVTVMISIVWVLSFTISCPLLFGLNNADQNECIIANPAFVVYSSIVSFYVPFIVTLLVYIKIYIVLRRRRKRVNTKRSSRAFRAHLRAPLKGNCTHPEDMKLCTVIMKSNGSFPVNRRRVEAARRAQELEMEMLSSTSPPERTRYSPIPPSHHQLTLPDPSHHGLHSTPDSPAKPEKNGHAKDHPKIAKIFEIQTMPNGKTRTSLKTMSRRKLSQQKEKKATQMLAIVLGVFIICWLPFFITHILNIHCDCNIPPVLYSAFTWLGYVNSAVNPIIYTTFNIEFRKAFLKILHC

For `O=C(NC1CCCCC1)N1CCN(CC2CC3=C(O2)c2cc(F)ccc2Oc2ccccc23)CC1` (stereo not shown) [Compound 80], the IC50 in assay [1] is 1000 nM; in assay [2] (read-out: h-5HT2C (converted)), 79.4 nM; in assay [3] (read-out: h-5HT2A (converted)), 39.8 nM.
Taken in the same sequence, the figures for `OC1CCCN(CC2CC3=C(O2)c2cc(F)ccc2Cc2ccccc23)C1` (stereo not shown) [Compound 37] were 20 nM, 2 nM and 1 nM.
As for `CN(C)CC1CC2=C(O1)c1ccccc1Cc1ccccc12` (single isomer, unassigned) [Compound 24], the IC50 in assay [1] is 158 nM; in assay [2] (read-out: h-5HT2C (converted)) it was 1.26 nM.
With `CN(CCO)CC1CC2=C(O1)c1cc(F)ccc1Oc1ccccc12` (stereo not shown) [Compound 32], the IC50 in assay [2] (read-out: h-5HT2C (converted)) was 25.1 nM; in assay [3] (read-out: h-5HT2A (converted)), 15.8 nM.
As to `CC(=O)N1CCN(CC2CC3=C(O2)c2cc(F)ccc2Oc2ccccc23)CC1` (stereo not shown) [Compound 54], the IC50 was 100 nM in assay [2] (read-out: h-5HT2C (converted)) and 31.6 nM in assay [3] (read-out: h-5HT2A (converted)).
With `CN(CCO)CC1CC2=C(O1)c1cc(F)ccc1Cc1ccccc12` (stereo not shown) [Compound 31], the IC50 in assay [2] (read-out: h-5HT2C (converted)) is 1.58 nM; in assay [3] (read-out: h-5HT2A (converted)) it was 2.51 nM.
For the molecule `O=C(C1CC1)N1CCN(CC2CC3=C(O2)c2cc(F)ccc2Cc2ccccc23)CC1` (stereo not shown) [Compound 57], the IC50 in assay [1] was 316 nM; in assay [2] (read-out: h-5HT2C (converted)), 20 nM; in assay [3] (read-out: h-5HT2A (converted)) it was 3.98 nM.
Taken in the same sequence, the figures for `OCCN1CCN(CC2CC3=C(O2)c2cc(F)ccc2Cc2ccccc23)CC1` (stereo not shown) [Compound 41] were 10 nM, 12.6 nM and 5.01 nM.
In the case of `CN(C)CC1CC2=C(O1)c1cc(F)ccc1Sc1ccccc12` (stereo not shown) [Compound 28], the IC50 was 12.6 nM in assay [1] and 0.398 nM in assay [3] (read-out: h-5HT2A (converted)).
On to `CN(C)CC1CC2=C(O1)c1cc(F)ccc1Oc1ccccc12` (stereo not shown) [Compound 26], for which the IC50 in assay [2] (read-out: h-5HT2C (converted)) was 7.94 nM; in assay [3] (read-out: h-5HT2A (converted)), 10 nM.
As for `COc1cc2c(cc1OC)CN(CC1CC3=C(O1)c1cc(F)ccc1Cc1ccccc13)CC2` (stereo not shown) [Compound 40], the IC50 in assay [1] is 50.1 nM; in assay [2] (read-out: h-5HT2C (converted)), 2.51 nM; in assay [3] (read-out: h-5HT2A (converted)), 6.31 nM.
On to `NCC1CC2=C(O1)c1cc(F)ccc1Cc1ccccc12` (stereo not shown) [Compound 1], for which the IC50 in assay [2] (read-out: h-5HT2C (converted)) is 0.794 nM; in assay [3] (read-out: h-5HT2A (converted)), 1.58 nM.
Regarding `CNCC1CC2=C(O1)c1cc(F)ccc1C(C)c1ccccc12` (stereo not shown) [Compound 8], the IC50 was 2000 nM in assay [1], 10 nM in assay [2] (read-out: h-5HT2C (converted)) and 31.6 nM in assay [3] (read-out: h-5HT2A (converted)).
Regarding `CN(C)C(=O)N1CCN(CC2CC3=C(O2)c2cc(F)ccc2Oc2ccccc23)CC1` (stereo not shown) [Compound 76], the IC50 is 251 nM in assay [1], 158 nM in assay [2] (read-out: h-5HT2C (converted)) and 50.1 nM in assay [3] (read-out: h-5HT2A (converted)).
For `CCOC(=O)CNC(=O)N1CCN(CC2CC3=C(O2)c2cc(F)ccc2Oc2ccccc23)CC1` (stereo not shown) [Compound 82], the IC50 is 1580 nM in assay [1], 158 nM in assay [2] (read-out: h-5HT2C (converted)) and 39.8 nM in assay [3] (read-out: h-5HT2A (converted)).
In the case of `CN(CC(=O)Nc1ccccc1)C[C@H]1CC2=C(O1)c1cc(F)ccc1Cc1ccccc12` [Compound 118], the IC50 in assay [1] was 794 nM; in assay [2] (read-out: h-5HT2C (converted)) it was 10 nM; in assay [3] (read-out: h-5HT2A (converted)), 50.1 nM.
Turning to `CN(Cc1nnn[nH]1)C[C@H]1CC2=C(O1)c1cc(F)ccc1Cc1ccccc12` [Compound 125], the IC50 in assay [1] was 1260 nM; in assay [2] (read-out: h-5HT2C (converted)) it was 2.51 nM; in assay [3] (read-out: h-5HT2A (converted)), 3.16 nM.
On to `O=C(Nc1ccccc1)N1CCN(CC2CC3=C(O2)c2cc(F)ccc2Oc2ccccc23)CC1` (stereo not shown) [Compound 84], for which the results for the IC50 in assay [1], in assay [2] (read-out: h-5HT2C (converted)) and in assay [3] (read-out: h-5HT2A (converted)) were 1000 nM, 50.1 nM and 31.6 nM, respectively.
Taken in the same sequence, the figures for `CNC(=O)/C=C/CN(C)C[C@H]1CC2=C(O1)c1cc(F)ccc1Cc1ccccc12` [Compound 123] were 50.1 nM, 2 nM and 2 nM.
Regarding `O=C(NC1CCCCC1)N1CCN(CC2CC3=C(O2)c2cc(F)ccc2Cc2ccccc23)CC1` (stereo not shown) [Compound 79], the IC50 in assay [1] was 1580 nM; in assay [3] (read-out: h-5HT2A (converted)), 39.8 nM.
Taken in the same sequence, the figures for `CCCCNC(=O)N1CCN(CC2CC3=C(O2)c2cc(F)ccc2Cc2ccccc23)CC1` (stereo not shown) [Compound 77] were 126 nM and 3.98 nM.
Consider `OC1CCN(CC2CC3=C(O2)c2cc(F)ccc2Cc2ccccc23)C1` (stereo not shown) [Compound 33], for which the IC50 in assay [1] is 39.8 nM; in assay [2] (read-out: h-5HT2C (converted)) it was 0.794 nM; in assay [3] (read-out: h-5HT2A (converted)), 0.794 nM.
Turning to `CCCC(=O)N1CCN(CC2CC3=C(O2)c2cc(F)ccc2Cc2ccccc23)CC1` (stereo not shown) [Compound 55], the figures for the IC50 in assay [1], in assay [2] (read-out: h-5HT2C (converted)) and in assay [3] (read-out: h-5HT2A (converted)) were 316 nM, 10 nM and 3.98 nM, respectively.
Regarding `CCCCc1ccc2c(c1)C1=C(CC(CNC)O1)c1ccccc1C2` (stereo not shown) [Compound 6], the IC50 in assay [1] is 251 nM; in assay [3] (read-out: h-5HT2A (converted)) it was 31.6 nM.
Take `CCCCNC(=O)N1CCN(CC2CC3=C(O2)c2cc(F)ccc2Oc2ccccc23)CC1` (stereo not shown) [Compound 78]: the IC50 is 50.1 nM in assay [2] (read-out: h-5HT2C (converted)) and 79.4 nM in assay [3] (read-out: h-5HT2A (converted)).
Consider `COC(=O)CC(=O)N1CCN(CC2CC3=C(O2)c2cc(F)ccc2Cc2ccccc23)CC1` (stereo not shown) [Compound 59], for which the IC50 is 316 nM in assay [1], 5.01 nM in assay [2] (read-out: h-5HT2C (converted)) and 2 nM in assay [3] (read-out: h-5HT2A (converted)).
With `O=C(Nc1ccc(F)cc1)N1CCN(CC2CC3=C(O2)c2cc(F)ccc2Cc2ccccc23)CC1` (stereo not shown) [Compound 85], the IC50 was 100 nM in assay [1] and 3.16 nM in assay [3] (read-out: h-5HT2A (converted)).
Consider `CS(=O)(=O)N1CCN(CC2CC3=C(O2)c2cc(F)ccc2Oc2ccccc23)CC1` (stereo not shown) [Compound 45], for which the IC50 in assay [1] was 794 nM; in assay [2] (read-out: h-5HT2C (converted)), 100 nM; in assay [3] (read-out: h-5HT2A (converted)) it was 79.4 nM.
Taken in the same sequence, the figures for `CN(C)CC1CC2=C(O1)c1ccccc1Oc1ccccc12` (stereo not shown) [Compound 25] were 1260 nM, 20 nM and 63.1 nM.
On to `CN(C)CC1CC2=C(O1)c1cc(Br)ccc1Oc1ccccc12` (stereo not shown) [Compound 27], for which the IC50 in assay [2] (read-out: h-5HT2C (converted)) is 2.51 nM; in assay [3] (read-out: h-5HT2A (converted)) it was 7.94 nM.
`CN(C)C(=O)N1CCN(CC2CC3=C(O2)c2cc(F)ccc2Cc2ccccc23)CC1` (stereo not shown) [Compound 75]: the IC50 in assay [1] is 794 nM; in assay [2] (read-out: h-5HT2C (converted)), 316 nM; in assay [3] (read-out: h-5HT2A (converted)) it was 50.1 nM.
On to `CN(C[C@H]1CC2=C(O1)c1cc(F)ccc1Cc1ccccc12)C(=O)Oc1ccccc1` [Compound 111], for which the IC50 is 3.98 nM in assay [2] (h-5HT2C) and 200 nM in assay [3] (h-5HT2A).
`CN(C)CC1CC2=C(O1)c1ccccc1Cc1ccccc12` (single isomer, unassigned) [Compound 23]: the IC50 was 1580 nM in assay [1] and 15.8 nM in assay [2] (read-out: h-5HT2C (converted)).
With `OC1CCN(CC2CC3=C(O2)c2cc(F)ccc2Sc2ccccc23)C1` (stereo not shown) [Compound 34], the IC50 in assay [1] was 10 nM; in assay [3] (read-out: h-5HT2A (converted)), 0.126 nM.
For the molecule `CCOC(=O)N1CCN(CC2CC3=C(O2)c2cc(F)ccc2Oc2ccccc23)CC1` (stereo not shown) [Compound 62], the IC50 in assay [1] was 631 nM; in assay [2] (read-out: h-5HT2C (converted)) it was 200 nM; in assay [3] (read-out: h-5HT2A (converted)), 79.4 nM.
The corresponding values for `COc1ccccc1NC(=O)CN(C)C[C@H]1CC2=C(O1)c1cc(F)ccc1Cc1ccccc12` [Compound 119] are 7940 nM, 25.1 nM and 31.6 nM.
For `CNCC1CC2=C(O1)c1cc(F)ccc1Sc1ccccc12` (single isomer, unassigned) [Compound 14], the IC50 in assay [2] (read-out: h-5HT2C (converted)) was 0.2 nM.
On to `CN(C)CC1CC2=C(O1)c1ccccc1Cc1ccccc12` (stereo not shown) [Compound 22], for which the IC50 in assay [2] (read-out: h-5HT2C (converted)) and in assay [3] (read-out: h-5HT2A (converted)) was 3.98 nM in each case.
As to `CN(C[C@H]1CC2=C(O1)c1cc(F)ccc1Cc1ccccc12)C1CC(=O)NC1=O` (mixture of isomers) [Compound 124], the figures for the IC50 in assay [1] and in assay [3] (read-out: h-5HT2A (converted)) were more than 10000 nM and 39.8 nM, respectively.
